In patent US20250213614A1, “Modified RELA Protein for Inducing Interferon Expression and Engineered Immune Cells with Improved Interferon Expression” (Institut Curie, priority 2022, published 2025):

Legend:
Assay type in all cases: cell-based, human
[1] = test system: MDDC; assay: IFN-I/III quantification (LEGENDplex) in MDDC after STING stimulation
Protocol: (§1) Plasmapheresis blood pockets were obtained from healthy adult volunteers after informed consent from the EFS (Establishment of French blood collection). Peripheral blood mononuclear cells (PBMCs) were isolated using Ficoll-Paque Plus (GE-17144003) and left overnight at 4° C. in RPMI (Thermo fischer #61870-010) with 10% heat-decomplemented fetal bovine serum (FBS, Eurobio #CVFSVFO0-01). CD14+ cells were enriched by positive selection (Miltenyi #130-050-201), the CD14 negative fraction was subsequently used to isolate total CD4+ T cells by negative selection (Stem Cell #17952). CD14+ cells were cultured in RPMI containing 10% FBS, 5% Penicillin-Streptomycin (PS, Thermo Fisher #10378-016), 50 μg/ml Gentamicin (Thermo Fisher #15750-045) and 10 mM HEPES (Thermo Fisher #15630-056). CD14+ cells were differentiated ex vivo into MDDC by supplementing the culture media with 50 ng/ml IL-4 (Miltenyi #130-093-922) and 10 ng/ml GM-CSF (Miltenyi #130-093-867). MDDC were used for experiments 3 or 4 days following the start of the culture. CD14+ cells were differentiated ex vivo into macrophages by adding 50 ng/ml MCSF (Miltenyi #130-096-492) to the culture media containing RPMI with 1% PS, 5% FBS and 5% human serum (Sigma #H4522). MDM were used 7 days following culture. Freshly isolated CD4+ T cells were cultured in X-VIVO 15 (Lonza #BE02-060F) and activated using anti-CD3 and anti-CD28 Dynabeads (fisher scientific #10548353) at the ratio of 1:5 (bead:cell). 100 U/ml human IL-2 (Immunotools #11340027) was added to cultures 2 days following TCR stimulation and media with IL-2 was replenished every 48 hours. To assess proliferation, freshly isolated CD4+ T cells were stained with cell proliferation dye (thermo fischer #65-0840-85) prior to TCR stimulation.
(§2) CD14+ cells were plated at 1 million cells/ml and transduced with equal volumes of freshly harvested SIV-VLPs and pTRIP-SFFV vectors in the presence of 8 μg/ml protamine (Sigma #P4020). CD4+ T cells were transduced with lentivectors 24 hours post-TCR stimulation in 100 μl of cells (0.2 million cells) and 100 μl of freshly harvested lentivirus in the presence of 8 μg/ml protamine. T cells were spinoculated at 1200 g for 2 hours at 25° C. 0.5 million THP-1 cells in 500 μl media (RPMI 10% FBS 1% PS) were transduced with 500 μl freshly harvested lentivirus in the presence of 8 μg/ml protamine. 1 μg/ml Puromycin (Invivogen #ant-pr-1) was added 2 days post-transduction when cells were transduced with pLKO.1-puro plasmid.
(§3) For stimulation of STING by extracellular ligands, 2.5 μg of ADUS100 (invivogen #tlrl-nacda2r-01) or 2′3′-cGAMP (cGAMP, invivogen #tlrl-nacga23-02) was added to 100,000 cells in 100 μl media either on freshly isolated primary cells or 3-4 days post differentiation for MDDC and 3 days post-TCR stimulation for CD4+ T cells. Cells and supernatant were harvested 18-24 hours post stimulation. For delivery of STING ligands after permeabilization, T cells were used 3 or 4 days post TCR stimulation and MDDC were used 3-4 days following differentiation. 150,000 cells were plated in round bottom 96-well plate. Media was removed by centrifugation and 20 μl 2× permeabilization buffer (100 mM HEPES, 200 mM KCl, 6 mM MgCl2, 0.2 mM DTT, 170 mM Sucrose, 2 mM ATP, 2 mM GTP, 0.4% bovine serum albumin (BSA), 20 μg/ml digitonin) and 20 μl cGAMP (12 μg/ml) was added to cells. 18 to 20 hours following stimulation supernatants and cells were harvested. Cells were stained with a fixable viability dye (Invitrogen #65-0865-14) and acquired on a FACSVerse (BD).
For experiments with conditioned media, CD4+ T cell- and MDDC-conditioned media refer to […] filtered conditioned media from cultures of activated CD4+ T cell and MDDC, respectively. CD4+ T cells were pretreated with 100 μl of MDDC-conditioned media or of fresh MDDC culture media, 24 hours prior to cGAMP stimulation. […]

[2] = test system: CD4+ T cells; assay: IFN-I/III quantification (LEGENDplex) in CD4+ T cells, baseline or after STING stimulation
Protocol: as §1, §2
as §3, with “(BD). […]” for “(BD).”
Where indicated, cells were treated with 5-Azacytidine (5AZA, Sigma #A2385) 48 hours prior to cGAMP stimulation. Fresh 5AZA was added daily to cells, and media was replenished with 5AZA following cGAMP stimulation. 100 nM Trichostatin A (TSA) (sigma #T1952) was added to cells following cGAMP stimulation and left overnight. […]

[3] = test system: cGAS; assay: cGAMP quantification by ELISA in CD4+ T cells; settings: CD4+ T cells expressing RELA K5R or IRF3, FIG. 5B
Protocol: For cGAS stimulation, 2 μg of control GFP plasmid DNA (provided in the kit) was nucelofected in 2 million T cells 72 hours post TCR stimulation (Lonza #VPA-1002) using the programme T020 (Lonza #Nucleofector 2b). Cells were harvested at 4 hours and 24 hours after nucleofection for analysis.
Cell pellets were stored at −80° C. until extraction. Frozen pellets were fixed in 80% cold methanol and subjected to 5 freeze-thaw cycles in liquid nitrogen. Samples were then centrifuged at 16,000 g for 20 minutes at 4° C. The supernatants were further subjected to drying in Savant DNA Speed Vac DNA 110 at 65° C. for 2 hours. The pellets were resuspended in 100 μl RNase- and DNase-free water and cGAMP was quantified by ELISA as per manufacturers protocol (Interchim #501700). cGAMP quantity was normalized to cell numbers and represented as pg/million cells.

Row | Molecule | increase in IFNλ1 at baseline ([1]; MDDC, monocyte-derived macrophages (MDM) or THP-1 cells, data not shown) | IFN-I/III response to cGAMP compared to the control condition ([1]; lentivector overexpression in MDDC, cGAMP 6 μg/ml, FIG. 2D) | expression of IFNλ1 and IRF7 ([2]; RELA K5R expressed in CD4+ T cells, no stimulation) | IFNλ1 after cGAMP stimulation ([2]; lentivector overexpression in CD4+ T cells, FIG. 2B, 2D, 2F) | IFNα2 in response to cGAMP ([2]; lentivector overexpression in CD4+ T cells, FIG. 2D, 2F) | baseline IFNλ1 expression ([2]; lentivector overexpression in CD4+ T cells, no cGAMP, FIG. 2D, 2F) | cellular cGAMP [3] | augmentation of cGAMP-mediated IFNλ1, IFNα2 and IFNβ production ([1]; IRF3 over-expression in MDDC, cGAMP 6 μg/ml, FIG. 3B) [fold] | IFNα2 response to cGAMP ([2]; IRF3 over-expression alone in CD4+ T cells, FIG. 3B) | IFNβ ([2]; IRF3 over-expression alone in CD4+ T cells, cGAMP, FIG. 3B)
1 | RELA K5R: RELA mutant converting five lysine residues (K122, K123, K310, K314, K315) to arginine, expressed from lentivector | not observed | remained unchanged | sufficient to induce | augmented in response to cGAMP | detectable | increased baseline IFNλ1 expression | no significant increase |  |  | 
2 | IRF3: interferon Regulatory Factor 3, over-expressed from lentivector (protein, UniProt Q14653 1-427, looked up) Interferon regulatory factor 3: MGTPKPRILPWLVSQLDLGQLEGVAWVNKSRTRFRIPWKHGLRQDAQQEDFGIFQAWAEATGAYVPGRDKPDLPTWKRNFRSALNRKEGLRLAEDRSKDPHDPHKIYEFVNSGVGDFSQPDTSPDTNGGGSTSDTQEDILDELLGNMVLAPLPDPGPPSLAVAPEPCPQPLRSPSLDNPTPFPNLGPSENPLKRLLVPGEEWEFEVTAFYRGRQVFQQTISCPEGLRLVGSEVGDRTLPGWPVTLPDPGMSLTDRGVMSYVRHVLSCLGGGLALWRAGQWLWAQRLGHCHTYWAVSEELLPNSGHGPDGEVPKDKEGGVFDLGPFIVDLITFTEGSGRSPRYALWFCVGESWPQDQPWTKRLVMVKVVPTCLRALVEMARVGGASSLENTVDLHISNSHPLSLTSDQYKAYLQDLVEGMDFQGPGES |  |  |  |  |  |  | no significant increase | 10 | only to a small extent | remained undetectable
